Here are results for 20 compounds from patent US7078400B2, “20-HETE synthase inhibitor” (Taisho Pharmaceutical Co., Ltd., priority 1999, dated 2006).

The test system of data set [1] is 20-HETE synthase originated from rat kidney microsome. Briefly: Inhibitory effect of 20-HETE synthase originated from rat kidney microsome. The format is biochemical. Particulars: for Inhibition rate (1 μM): 20-HETE production without compound set to 100%. The gist of the method:
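Kidney microsomes from 6-week male spontaneously hypertensive rats were used with tritium-arachidonic acid and NADPH. 20-HETE was quantified by radio-HPLC on a C18 column.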

Setting [2] is: 1 μM of subject compound, rat kidney microsome.
The mark [3] stands for this setting: concentration at which 20-HETE production was inhibited to 50%, rat kidney microsome.
[4] abbreviates: concentration at which production of 20-HETE was inhibited to 50%.

Broadly, the IC50 is the concentration needed to halve the response being measured. Lower therefore signals greater potency in that assay. The term melting point denotes the temperature of the solid-liquid transition. In turn, `COc1ccc(COc2ccc(N/C=N/O)cc2)cc1` [Comp. 389] gave a melting point of 167 to 167.5 °C. Moreover, the “Inhibition rate (1 μM)” value in data set [1] (setting [2]) stood at 105.5. The compound also registered an IC50 in data set [1] (setting [3]) of 1.6 nM.
The compound `COc1cccc(COc2ccc(N/C=N/O)cc2)c1` [Comp. 390] returned a melting point of 152.5 to 153.5 °C. The “Inhibition rate (1 μM)” value in data set [1] (setting [2]) was 112.8. The compound also yielded a concentration for half-maximal inhibition (IC50) in data set [1] (setting [3]) of 2.7 nM.
As for `Cc1cccc(COc2ccc(N/C=N/O)cc2)c1` [Comp. 391], the melting point lay in the range of 161.5 to 162 °C. The “Inhibition rate (1 μM)” value in data set [1] (setting [2]) turned out to be 113.4. Further, the IC50 in data set [1] (setting [3]) came to 2.4 nM.
The corresponding values for `O/N=C/Nc1ccc(OCc2ccc(F)cc2)cc1` [Comp. 392] are 165.5 to 166 °C, 109.6 and 2.4 nM.
The matching figures for `N#Cc1cccc(COc2ccc(N/C=N/O)cc2)c1` [Comp. 393]: 143 to 146 °C, 124.3 and 1.1 nM.
The matching figures for `COc1cccc(COc2ccc(N/C=N/O)cc2)c1OC` [Comp. 394]: 144 to 145 °C, 119.9 and 3.9 nM.
The compound `COc1ccc(COc2ccc(N/C=N/O)cc2)c(OC)c1` [Comp. 395] gave a melting point of 178 to 178.5 °C. Also, the “Inhibition rate (1 μM)” value in data set [1] (setting [2]) is given as 111.6. Further, the 50% inhibitory concentration (IC50) in data set [1] (setting [3]) turned out to be 2.1 nM.
`CN(C)CCOc1ccc(N/C=N/O)cc1` [Comp. 399]: the melting point was 118 to 120 °C. Besides, the “Inhibition rate (1 μM)” value in data set [1] (1 μM of the subject compound) is 102.3. For the same compound, half-maximal inhibition in data set [1] (setting [4]) (IC50) was put at 98 nM.
The corresponding values for `CN(C)CCCOc1ccc(N/C=N/O)cc1` [Comp. 400] are 115 to 117 °C, 116.9 and 48.7 nM.
The corresponding values for `CN(C)CCCCOc1ccc(N/C=N/O)cc1` [Comp. 401] are 100 to 102 °C, 117.4 and 37.6 nM.
`CN(C)CCCCCCOc1ccc(N/C=N/O)cc1` [Comp. 402]: the melting point was 95 to 96 °C. The “Inhibition rate (1 μM)” value in data set [1] (1 μM of the subject compound) is given as 118.8. The IC50 in data set [1] (setting [4]) turned out to be 18.7 nM.
With `CN(C)CC(C)(C)COc1ccc(N/C=N/O)cc1` [Comp. 403], the melting point fell in the range of 101.5 to 102 °C. Also, in data set [1] (1 μM of the subject compound), the “Inhibition rate (1 μM)” value is on record as 118.3. Also, the IC50 in data set [1] (setting [4]) was determined as 28.5 nM.
The corresponding values for `CN(C)CCOCCOc1ccc(N/C=N/O)cc1` [Comp. 404] are 57.5 to 59 °C, 114.9 and 116 nM.
The corresponding values for `O=C1CCCN1CCOc1ccc(N/C=N/O)cc1` [Comp. 407] are 127.5 to 129.5 °C, 94.3 and 4.9 nM.
Compound `O=C1CCCN1CCCOc1ccc(N/C=N/O)cc1` [Comp. 408] gave a melting point of 177 to 177.5 °C. Moreover, the “Inhibition rate (1 μM)” value in data set [1] (1 μM of the subject compound) worked out at 103.0. The same compound had an IC50 in data set [1] (setting [4]) of 4.2 nM.
The matching figures for `O/N=C/Nc1ccc(OCC2CCO2)cc1` (stereo not drawn) [Comp. 409]: 145 to 146 °C, 113.2 and 6.7 nM.
The matching figures for `O/N=C/Nc1ccc(OCC2COc3ccccc3O2)cc1` (stereo not drawn) [Comp. 410]: 153 to 155 °C, 117.3 and 1 nM.
The matching figures for `O/N=C/Nc1ccc(OCCn2cccc2)cc1` [Comp. 411]: 150.5 to 151.5 °C, 122.4 and 3.1 nM.
Regarding `O/N=C/Nc1ccc(OCCCn2cccc2)cc1` [Comp. 412], the melting point was in the range of 130 to 130.5 °C. Moreover, the “Inhibition rate (1 μM)” value in data set [1] (1 μM of the subject compound) turned out to be 119.4. Further, in data set [1] (setting [4]), it took 1.5 nM to reach half-maximal inhibition (IC50).
On to `CSCCOc1ccc(N/C=N/O)cc1` [Comp. 413], for which the melting point lay in the range of 112 to 113 °C. Further, the “Inhibition rate (1 μM)” value in data set [1] (1 μM of the subject compound) is recorded as 120.2. The same compound returned an IC50 in data set [1] (setting [4]) of 2.3 nM.
